Test [1] deals with NMDA receptor (NMDAR). In words: Ca2+ imaging (Fluo-3) of hippocampal brain slices, NMDA + glycine application (NMDA reaction). The note with it: for function of NMDAR in EC, CA1, CA2, CA3 and DG: leptin 100 nM. The class given is cell-based, mouse.
In test [2] the test system is NL-G-F(−/−) mice. In words: Hippocampus function-dependent fear conditioning test in NL-G-F(−/−) mice. Type of test: in vivo, mouse. The note with it: perampanel alone 5 mg/kg or 10 mg/kg. Here is the method:
Contextual fear conditioning was applied with slight modifications to published protocols (50). Mice were transferred to the animal experimental room and allowed to acclimatize for at least 30 minutes prior to contextual fear conditioning training. Next, the mice were placed in a foot shock system model MK-450 MSQ (Muromachi Kikai Co., Ltd., Japan), searching was performed for 2 minutes, and then 3 electric foot shocks (0.8 mA, 2 sec, 2 min interval) were performed. After mice were left in the apparatus for an additional 1 minute, the animals were removed.
NL-G-F(−/−) mice, a dementia model, were administered with memantine (mema), exercise, memantine and exercise, memantine and perampanel, and perampanel alone (5 mg/kg or 10 mg/kg), and subjected to behavioral experiments. As the behavior test, a novel object recognition test and a hippocampus function-dependent fear conditioning test were performed. Memantine is an antagonist of the NMDA receptor, but has distinct properties from other NMDA receptor antagonists (refer to Hokama Y., et al., Neuro Oncology, 2022, noac162). That is, memantine is a drug that works only when glutamic acid is excessively present in the brain.

In test [3] the test system is Ca2+ permeable AMPAR (CP-AMPAR). In words: Ca2+ imaging (Fluo-3) of hippocampal brain slices, AMPA + CTZ application (CP-AMPA reaction). The class given is cell-based, mouse.

On to “leptin: a hormone that regulates energy expenditure”, for which the “function of NMDAR in EC, CA1, CA2, CA3 and DG” value in test [1] (HFD mice orally administered PER) and in test [1] (ob/ob mice orally administered PER) was “significantly enhanced” each time.

Turning to `N[C@H](CCCP(=O)(O)O)C(=O)O` [APV, D-(−)-2-amino-5 phosphonovaleric acid], the “NMDA receptor reactivity to NMDA and glycine” value in test [1] (2 w HFD slices under calcium ion-free (0 mM Ca) conditions, in the presence of APV) was “disappeared”; in test [1] (BAPTA-AM-treated 2 w HFD slices, APV 50 μM simultaneously with NMDA and glycine), “abolished”.

With `CC12CC3CC(C)(C1)CC(N)(C3)C2` [memantine], the “cognitive function in hippocampus function-dependent fear conditioning test” value in test [2] was “improvement in cognitive function”.

For `C[C@H](CCC(=O)O)C[C@H](C)C[C@H](C)C(=O)/C=C(\O)[C@H](C)C[C@H](C)C/C=C/[C@@H](C)[C@@H](O)[C@@H](C)[C@@H](O)C[C@@H]1CC[C@@](C)([C@H]2CC[C@@](C)([C@@H](C)O)O2)O1` [ionomycin], the “NMDA receptor reactivity due to addition of NMDA and glycine” value in test [1] (slices of 14 to 16 week old mice on normal diet, 2 mM Ca2+, pretreated with 1 μM ionomycin for 10 min, n=4) was “disappeared”.

For `Cc1cn2c(n1)Cc1ccc(Cl)cc1C(c1ccc(N)cc1)=N2` [GYKI 47261], in test [3], the “increase in [Ca2+]i via AMPAR” value is given as “completely repressed”; the “increase in [Ca2+]i via pathological AMPARs” value is on record as “disappeared”; the “inhibitory effect on CP-AMPAR in EC, CA1, CA2, CA3 and DG” value was “significant inhibitory effect”.

Take `CC(=O)OCOC(=O)CN(CC(=O)OCOC(C)=O)c1ccccc1OCCOc1ccccc1N(CC(=O)OCOC(C)=O)CC(=O)OCOC(C)=O` [BAPTA-AM]: the “NMDA receptor reactivity to NMDA (50 μM) and glycine (10 μM)” value in test [1] (brain slices of 2 w HFD mice treated 60 min with 3 μM BAPTA-AM, n=3) is recorded as “restoration of reactivity”.

For the compound `NCCCNCCCCNCCCNC(=O)Cc1cccc2ccccc12` [NASPM, N-[3-[[4-[(3-aminopropyl)amino]butyl]amino]propyl]-1-naphthaleneacetamide], in test [3], the “increase in [Ca2+]i via AMPAR” value was “completely repressed”; the “increase in [Ca2+]i via pathological AMPARs” value is on record as “disappeared”; the “inhibitory effect on CP-AMPAR in EC, CA1, CA2, CA3 and DG” value is “significant inhibitory effect”.

(Values after US20240398775A1, “PHARMACEUTICAL COMPOSITION FOR USE IN TREATING COGNITIVE DECLINE OR FOR USE IN TREATING OVERWEIGHT OR OBESITY” (University of the Ryukyus, priority 2021, published 2024).)
